Where two headings read alike, the source gives them in different places. Marks after values point to notes of the source that are not given here.
How the values were obtained:
Huh6 cells = system: Huh6 cells
Description: All experiments were performed in duplicate.
3.8–4.0 × 10^5 cells per well were seeded into 6‐well plates with 3 mL of RPMI (4% FBS) for 12 hr, then dilutions of stock solutions of the diagnostic mutagens were added for different time periods (4, 24, and 48 hr). In each experimental series solvent controls were included. Subsequently, the cells were washed twice with 3.0 mL medium. […] Finally, the cells were washed and trypsinised. Afterwards the cells were washed twice with 8.0 mL RPMI and collected on slides by cytocentrifugation (600 rpm, 5 min). The slides were air dried, fixed, and stained with DiffQuick according to the instructions of the manufacturer. For each experimental point, two cultures were tested per dose. From each culture ≥1,000 BN cells were evaluated under 400‐fold magnification (Nikon Photophot‐FXA, Tokyo, Japan). At least 2,000 binucleated cells were analyzed per dose for the determination of the different nuclear anomalies (MN, NBuds, and NBs).
The experiments were performed as described in the previous chapter. The cells were exposed only to one dose of the different mutagens and were cultivated after the seeding in 6‐well plates which contained 4% or 10% FBS in RPMI, respectively.
Data were evaluated by generalized linear model with Poisson counts. Chi‐square tests for overdispersion were applied. […] P values ≤0.05 were considered statistically significant.
^150-60 000 cells were seeded in 6 well plates with 3 ml RPMI (4% FBS), subsequently different solutions of the test compound (dissolved in medium) were added. After treatment for different time periods, the cells was washed and processed as described in the Material and Method section. […] From each culture 1000 binoculated cells were evaluated. BN-MN – number of micronucleated cells; MN - total number of micronuclei; CBPI – cytokinesis-block proliferation index
^1The experiments were conducted essentially as described in the footnote of Table S1A-I. *p≤0.05

HepG2 = conditions: cited from earlier work
Human lymphocytes = conditions: Human lymphocytes; ref Fowler et al., 2014; cited from earlier work
[1] = ref IARC (2018); cited from earlier work
[2] = 10% FBS, 24 hr treatment, 0.5 µg/ml
[3] = 10% FBS, 24 hr treatment, 1 µg/ml

[NH2][Pt]([NH2])([Cl])[Cl] [CDDP, Cisplatin]
MN effects after 24 hr (or longer) compared with 4 hr treatment (in words) (Huh6 cells; 4% FBS): similar | Toxicity in MN experiment (Figure 3) (Huh6 cells; 4% FBS, 1.0 μg/ml, 48h): Toxic | BN-MN (number of micronucleated cells) (Huh6 cells; 4% FBS, 4hrs, 0.05 µg/ml): 16.0 ± 1.4 ‰ | Bridges (Huh6 cells; 4% FBS, 4hrs, 0.05 µg/ml): 0.0 ± 0.0 ‰ | Buds (Huh6 cells; 4% FBS, 4hrs, 0.05 µg/ml): 15.5 ± 2.1 ‰ | CBPI (Huh6 cells; 4% FBS, 4hrs, 0.05 µg/ml): 1.7 ± 0.1 | MN (total number of micronuclei) (Huh6 cells; 4% FBS, 4hrs, 0.05 µg/ml): 16.0 ± 1.4 ‰ | BN-MN (number of micronucleated cells) (Huh6 cells; 4% FBS, 4hrs, 0.1 µg/ml): 19.5 ± 0.7 ‰ | Bridges (Huh6 cells; 4% FBS, 4hrs, 0.1 µg/ml): 0.0 ± 0.0 ‰ | Buds (Huh6 cells; 4% FBS, 4hrs, 0.1 µg/ml): 16.5 ± 2.1 ‰ | CBPI (Huh6 cells; 4% FBS, 4hrs, 0.1 µg/ml): 1.6 ± 0.1 | MN (total number of micronuclei) (Huh6 cells; 4% FBS, 4hrs, 0.1 µg/ml): 20.0 ± 1.4 ‰ | BN-MN (number of micronucleated cells) (Huh6 cells; 4% FBS, 4hrs, 0.5 µg/ml): 19.5 ± 0.7 ‰ | Bridges (Huh6 cells; 4% FBS, 4hrs, 0.5 µg/ml): 0.0 ± 0.0 ‰ | Buds (Huh6 cells; 4% FBS, 4hrs, 0.5 µg/ml): 19.0 ± 1.4* ‰ | CBPI (Huh6 cells; 4% FBS, 4hrs, 0.5 µg/ml): 1.8 ± 0.1 | MN (total number of micronuclei) (Huh6 cells; 4% FBS, 4hrs, 0.5 µg/ml): 21.5 ± 0.7 ‰ | BN-MN (number of micronucleated cells) (Huh6 cells; 4% FBS, 4hrs, 1 µg/ml): 31.5 ± 5.0* ‰ | Bridges (Huh6 cells; 4% FBS, 4hrs, 1 µg/ml): 3.5 ± 0.7 ‰ | Buds (Huh6 cells; 4% FBS, 4hrs, 1 µg/ml): 34.0 ± 5.7* ‰ | CBPI (Huh6 cells; 4% FBS, 4hrs, 1 µg/ml): 1.5 ± 0.1 | MN (total number of micronuclei) (Huh6 cells; 4% FBS, 4hrs, 1 µg/ml): 33.5 ± 5.0* ‰ | BN-MN (number of micronucleated cells) (Huh6 cells; 4% FBS, 24hrs, 0.1 µg/ml): 13.5 ± 0.7 ‰ | Bridges (Huh6 cells; 4% FBS, 24hrs, 0.1 µg/ml): 0.0 ± 0.0 ‰ | Buds (Huh6 cells; 4% FBS, 24hrs, 0.1 µg/ml): 15.5 ± 0.7 ‰ | CBPI (Huh6 cells; 4% FBS, 24hrs, 0.1 µg/ml): 1.8 ± 0.1 | MN (total number of micronuclei) (Huh6 cells; 4% FBS, 24hrs, 0.1 µg/ml): 14.0 ± 0.0 ‰ | BN-MN (number of micronucleated cells) (Huh6 cells; 4% FBS, 24hrs, 0.5 µg/ml): 25.5 ± 0.7* ‰ | Bridges (Huh6 cells; 4% FBS, 24hrs, 0.5 µg/ml): 2.5 ± 0.7 ‰ | Buds (Huh6 cells; 4% FBS, 24hrs, 0.5 µg/ml): 30.5 ± 2.1* ‰ | CBPI (Huh6 cells; 4% FBS, 24hrs, 0.5 µg/ml): 2.0 ± 0.0 | MN (total number of micronuclei) (Huh6 cells; 4% FBS, 24hrs, 0.5 µg/ml): 34.0 ± 1.4* ‰ | BN-MN (number of micronucleated cells) (Huh6 cells; 4% FBS, 24hrs, 1 µg/ml): 29.5 ± 0.7* ‰ | Bridges (Huh6 cells; 4% FBS, 24hrs, 1 µg/ml): 5.0 ± 1.4 ‰ | Buds (Huh6 cells; 4% FBS, 24hrs, 1 µg/ml): 36.0 ± 2.8* ‰ | CBPI (Huh6 cells; 4% FBS, 24hrs, 1 µg/ml): 1.8 ± 0.0 | MN (total number of micronuclei) (Huh6 cells; 4% FBS, 24hrs, 1 µg/ml): 35.0 ± 1.4* ‰ | BN-MN (number of micronucleated cells) (Huh6 cells; 4% FBS, 48hrs, 0.1 µg/ml): 16.5 ± 0.7 ‰ | Bridges (Huh6 cells; 4% FBS, 48hrs, 0.1 µg/ml): 0.0 ± 0.0 ‰ | Buds (Huh6 cells; 4% FBS, 48hrs, 0.1 µg/ml): 21.5 ± 2.1 ‰ | CBPI (Huh6 cells; 4% FBS, 48hrs, 0.1 µg/ml): 1.6 ± 0.0 | MN (total number of micronuclei) (Huh6 cells; 4% FBS, 48hrs, 0.1 µg/ml): 17.0 ± 1.4 ‰ | CBPI (Huh6 cells; 4% FBS, 48hrs, 1 µg/ml): 1.2 ± 0.1 | BN-MN (number of micronucleated cells) (Huh6 cells; 4% FBS, 48hrs, […]): 20.0 ± 1.4 ‰ | MN (total number of micronuclei) (Huh6 cells; 4% FBS, 48hrs, […]): 20.5 ± 0.7 ‰ | BN-MN (number of micronucleated cells) (Huh6 cells; [2]): 38.0 ± 1.4* | Bridges (Huh6 cells; [2]): 0.5 ± 0.7 | Buds (Huh6 cells; [2]): 32.0 ± 5.7* | CBPI (Huh6 cells; [2]): 1.9 ± 0.0 | MN (total number of micronuclei) (Huh6 cells; [2]): 40.5 ± 0.7* | BN-MN (number of micronucleated cells) (Huh6 cells; [3]): 46.5 ± 2.1* | Buds (Huh6 cells; [3]): 49.0 ± 2.8* | CBPI (Huh6 cells; [3]): 1.9 ± 0.1 | MN (total number of micronuclei) (Huh6 cells; [3]): 50.0 ± 1.4* | MN frequencies with 10% serum compared with 4% serum (in words) (Huh6 cells; 24 hr treatment): pronounced increase | Lowest effective concentration (LOEC) in micronucleus experiments (Huh6 cells; Huh6): 0.5 µg/mL | Lowest effective concentration (LOEC) in micronucleus experiments (HepG2; HepG2, ref Gajski et al., 2016): 0.1 (Gajski et al., 2016) μg/mL | Lowest effective concentration (LOEC) in micronucleus experiments (Human lymphocytes): 1.0 (Fowler et al., 2014) μg/mL | IARC classification [1]: Crosslinking agent; causes different types of DNA damage (gene mutations and CA); IARC: Group 2A

O=P1(N(CCCl)CCCl)NCCCO1 (stereo not drawn) [cyclophosphamide]
MN induction after 28 hr compared with 1 hr exposure (in words) (HepG2): stronger effects

— publication PMC6492180, “Cytome micronucleus assays with a metabolically competent human derived liver cell line (Huh6): A promising approach for routine testing of chemicals?” (Environmental and Molecular Mutagenesis, 2018)
